In US10124065B2, “Lipids and lipid compositions for the delivery of active agents” (Novartis AG, priority 2013, dated 2018):
“And” between values parts separate entries of the source, which are not always exact repeats. Identical values can stand only once.

What was measured:
[1] = Particle size of lipid nanoparticle (dynamic light scattering, Malvern Zetasizer); type: physicochemical
From the text: The lipid nanoparticles have a size of about 1 to about 2,500 nm, about 1 to about 1,500 nm, about 1 to about 1,000 nm, in a sub-embodiment about 50 to about 600 nm, in a sub-embodiment about 50 to about 400 nm, in a sub-embodiment about 50 to about 250 nm, and in a sub-embodiment about 50 to about 150 nm. Unless indicated otherwise, all sizes referred to herein are the average sizes (diameters) of the fully formed nanoparticle, as measured by dynamic light scattering on a Malvern Zetasizer. The nanoparticle sample is diluted in phosphate buffered saline (PBS) so that the count rate is approximately 200-400 kcts. The data is presented as a weighted average of the intensity measure. Unless indicated otherwise, all particle size measurements referred to in Tables 4 and 5 are the Z-average particle size of the fully formed nanoparticle, as measured by dynamic light scattering on a Malvern Zetasizer. The nanoparticle sample was diluted in phosphate buffered saline (PBS) so that the count rate is approximately 200-400 kcts.

[2] = Polydispersity index (PDI) of lipid nanoparticle (dynamic light scattering); type: physicochemical
Experimental: Unless indicated otherwise, all PDIs referred to herein are the PDI of the fully formed nanoparticle, as measured by dynamic light scattering on a Malvern Zetasizer. The nanoparticle sample was diluted in phosphate buffered saline (PBS) so that the count rate was approximately 200-400 kcts. The data is presented in Tables 4 and 5 as a weighted average of the intensity measure.

[3] = pKa measurement of cationic lipid (TNS fluorescence); type: physicochemical; conditions: probe TNS; pKa of the cationic lipid of formula (I); Table 4; read-out: pKa
Experimental: Unless indicated otherwise, all pKa's referred to herein were measured at standard temperature and pressure. Also, unless otherwise indicated, all references to pKa are references to pKa measured using the following technique. 2 mM solution of lipid in ethanol was prepared by weighing the lipid and then dissolving it in ethanol. 0.3 mM solution of fluorescent probe TNS in ethanol:methanol 9:1 was prepared by first making 3 mM solution of TNS in methanol and then diluting to 0.3 mM with ethanol. An aqueous buffer containing 200 mM sodium phosphate dibasic and 100 mM citric acid was prepared. […] Using the Hamilton Microlab Star high throughput liquid handler and Hamilton run control software Software, 7.5 uL of probe/lipid mix were added to 242.5 uL of buffer in a 1 mL 96 well plate (model NUNC 260252, […] Nunc International). This was done with all twelve buffers. After mixing in 1 mL 96 well plate, 100 uL of each probe/lipid/buffer mixture was transferred to a 250 uL black with clear bottom 96 well plate (model COSTAR 3904, Corning). The fluorescence measurements are carried out on the SpectraMax M5 spectrophotometer using software SoftMax pro 5.2 and following parameters: After the measurement, the background fluorescence value of an empty well on the 96 well plate was subtracted from each probe/lipid/buffer mixture. The fluorescence intensity values were then normalized to the value at lowest pH. The normalized fluorescence intensity vs. pH chart was then plotted in the Microsoft Excel software. The twelve points were connected with a smooth line. The point on the line at which the normalized fluorescence intensity was equal to 0.5 was found. […] The pKa determined using this method is precise to about 0.1 pKa units.

[4] = system: plasma Factor VII enzyme activity; test: Mouse Factor VII dosing / Factor VII Activity Assay; type: in vivo; conditions: percent knock down of plasma Factor VII activity, CD-1 mice, 48 h; for KD FVII 0.03 mg/kg: single IV dose 0.03 mg/kg, LNP Chol/DSPC/S010 45/44/9/2; for KD FVII 0.3 mg/kg: single IV dose 0.3 mg/kg, LNP Chol/DSPC/PEG-DMG 45/44/9/2
Experimental: Female CD-1 mice were received from Harlan Labs and maintained on standard lab chow and water ad libitum. The animals weighed approximately 25 grams at time of dosing. Formulated Factor VII siRNA was administered as a single dose intravenously via the lateral tail vein. Approximately 48 hours after injection, the mice were euthanized by CO2 inhalation followed by exsanguination through the vena cava. […] Plasma collected from injected mice was assayed for Factor VII enzyme activity using the Biophen FVII kit from Hyphen Biomedical (catalog number 221304). An assay standard curve was prepared using pooled plasma aliquots from the vehicle control animals. All samples were diluted to fall within the linear range of the standard curve and Factor VII activity relative to control plasma was reported. Lipid nanoparticles comprising lipid compounds of formula (I) and the FVII siRNA duplex sequence listed above were tested in the Factor VII Activity Assay. The results of this assay are given in Table 4 below as a percent knock down of plasma Factor VII enzyme activity at a dose of 0.3 mg/kg and 0.03 mg/kg.

[5] = system: respiratory syncytial virus F protein; test: Immunization studies, anti-RSV-F titers; type: in vivo; conditions: anti-RSV-F titer; BALB/c; course A = days 0 & 21; 4 weeks after second dose; liposomes with 0.1 μg vA317 replicon (naked: 1 μg)
Experimental: BALB/c were immunized with liposomes comprising DSPC, cholesterol, and various lipids of the invention (or, for comparison, the cationic lipid 1,2-dilinoleyloxy-N,N-dimethyl-3-aminopropane or ‘DLinDMA’). The liposomes encapsulated 0.1 μg of “vA317” self-replicating RNA replicon which encodes respiratory syncytial virus F protein (see WO2012/031043). […] Doses were given either on days 0 & 21 or days 0 & 42. Immune responses were assessed 2 weeks after each dose (2wp1, 2wp2), and in some cases also at 4 weeks after the second dose (4wp2).

[6] = FVII siRNA LNP, Chol/DSPC/S010, molar ratio 45/44/9/2, Z-average
[7] = FVII siRNA LNP, Chol/DSPC/S010, molar ratio 45/44/9/2
[8] = PLK1-424 siRNA LNP, Chol/DSPC/S010 45/44/9/2

| SMILES | Size (nm) [1, 6] | PDI [2, 7] | further results |
| --- | --- | --- | --- |
| CCCCC/C=C\C/C=C\CCCCCCCCOc1cc(COC(=O)CCN(C)C)cc(OCCCCCCCC/C=C\C/C=C\CCCCC)n1 [Example 31, (2,6-bis((9Z,12Z)-octadeca-9,12-dien-1-yloxy)pyridin-4-yl)methyl 3-(dimethylamino)propanoate] | 81.16 nm | 0.049 |  |
| CCCCCCCC(=O)OCCCCCCCCCCOc1cc(CN(C)C)cc(OCCCCCCCCCCOC(=O)CCCCCCC)c1OCCCCCCCCCCOC(=O)CCCCCCC [Ex. 99, ((5-((dimethylamino)methyl)benzene-1,2,3-triyl)tris(oxy))tris(decane-10,1-diyl)trioctanoate] |  |  | pKa [3]: 5.75 |
| CCCCCCCC(=O)OCC(COC(=O)CCCCCCC)OC(=O)CCC(=O)OCc1cc(COC(=O)CCC(=O)OC(COC(=O)CCCCCCC)COC(=O)CCCCCCC)cc(CN(C)C)c1 [Ex. 107, bis(1,3-bis(octanoyloxy)propan-2-yl) O,O′-((5-((dimethylamino)methyl)-1,3-phenylene)bis(methylene))disuccinate] | 191.7 nm | 0.071 |  |
| CCCCC/C=C\C/C=C\CCCCCCCC(=O)OCCCCOc1cc(CN(C)C)cc(OCCCCOC(=O)CC(CCCCCCCC)CCCCCCCC)c1 [Ex. 109, (9Z,12Z)-4-(3-((dimethylamino)methyl)-5-(4-((3-octylundecanoyl)oxy)butoxy)phenoxy)butyl octadeca-9,12-dienoate] | 91.98 nm | 0.09 | KD FVII 0.03 mg/kg [4]: 68.97% |
| CCCCCCCCOC(=O)CCCCCCCC(=O)OCCCOc1cc(CN(C)C)cc(OCCCOC(=O)CCCCCCCC(=O)OCCCCCCCC)c1 [Ex. 98, O′^1,O^1-(((5-((dimethylamino)methyl)-1,3-phenylene)bis(oxy))bis(propane-3,1-diyl)) 9-dioctyl dinonanedioate] | 164.6 nm | 0.096 |  |
| CCCCCCCCCC(=O)OCCCCCCCC(=O)OCc1cc(COC(=O)CCCCCCCOC(=O)CCCCCCCCC)cc(CN(C)C)c1 [Example 83] | 128.5 nm | 0.005 |  |
| CCCCCCCC(=O)OCCCCCCCCCCOc1cc(CN(CC)CC)cc(OCCCCCCCCCCOC(=O)CCCCCCC)c1OCCCCCCCCCCOC(=O)CCCCCCC [Ex. 100, ((5-((diethylamino)methyl)benzene-1,2,3-triyl)tris(oxy))tris(decane-10,1-diyl)trioctanoate] |  |  | KD FVII 0.03 mg/kg [4]: 26.9%; KD FVII 0.3 mg/kg [4]: 94.0% |
| CCCCCCCCCC(=O)OCCCCCCCCOc1cc(COC(=O)CCN(C)C)cc(OCCCCCCCCOC(=O)CCCCCCCCC)c1 [Ex. 123] |  |  | pKa [3]: 6.08 |
| CCCCC/C=C\C/C=C\CCCCCCCCOc1cc(COC(=O)CCN(C)C)cc(OCCCCCCCC/C=C\C/C=C\CCCCC)c1 [Example 14, 3,5-bis((9Z,12Z)-octadeca-9,12-dien-1-yloxy)benzyl 3-(dimethylamino)propanoate] | 81.74 nm | 0.059 | 4wp2 pool 1 [5]: 13687 and 21375; 4wp2 pool 2 [5]: 18851 and 21347 |
| CCCCCCCCCC(=O)OCCCCCCOc1cc(CN(C)C)cc(OCCCCCCOC(=O)CCCCCCCCC)c1 [Example 47, ((5-((dimethylamino)methyl)-1,3-phenylene)bis(oxy))bis(hexane-6,1-diyl)bis(decanoate)] |  |  | KD FVII 0.3 mg/kg [4]: 99% |
| CCCCCCCC/C=C\CCCCCCCCOc1cc(CN(C)C)cc(OCCCCCCCC/C=C\CCCCCCCC)c1 [Example 1, 1-(3,5-bis((Z)-octadec-9-en-1-yloxy)phenyl)-N,N-dimethylmethanamine] | 87.16 nm | 0.124 | Size (nm) ([1]; FVII siRNA LNP, Chol/DSPC/PEG-DMG, molar ratio 45/44/9/2, Z-average): 98.2 nm; Size (nm) [1, 8]: 74.56 nm; PDI ([2]; FVII siRNA LNP, Chol/DSPC/PEG-DMG, molar ratio 45/44/9/2): 0.05; PDI [2, 8]: 0.152; KD FVII 0.03 mg/kg [4]: 30.8%; KD FVII 0.3 mg/kg [4]: 75.1% |
| CCCCC/C=C\C/C=C\CCCCCCCC(=O)OCCCCOc1cc(CN(CC)CC)cc(OCCCCOC(=O)CCCCCCC/C=C\C/C=C\CCCCC)c1C [Example 55, (9Z,9′Z,12Z,12′Z)-((5-((diethylamino)methyl)-2-methyl-1,3-phenylene)bis(oxy))bis(butane-4,1-diyl)bis(octadeca-9,12-dienoate)] |  |  | KD FVII 0.3 mg/kg [4]: 98.0% |
| CCCCCCCC(=O)OC[C@@H](CCOc1cc(CN(C)C)cc(OCC[C@H](COC(=O)CCCCCCC)OC(=O)CCCCCCC)c1)OC(=O)CCCCCCC [Example 94, (R)-4-(3-((R)-3,4-bis(octanoyloxy)butoxy)-5-((dimethylamino)methyl)phenoxy)butane-1,2-diyldioctanoate] |  |  | KD FVII 0.03 mg/kg [4]: 90% |
| CCCCC/C=C\C/C=C\CCCCCCCCOC(=O)CCC(=O)OCc1cc(COC(=O)CCC(=O)OCCCCCCCC/C=C\C/C=C\CCCCC)cc(CN(C)C)c1 [Example 77, O,O′-((5-((dimethylamino)methyl)-1,3-phenylene)bis(methylene))di((9Z,12Z)-octadeca-9,12-dien-1-yl)disuccinate] | 154.1 nm | 0.014 |  |
| CCCCC/C=C\C/C=C\CCCCCCCCOC(=O)CCCCOc1cc(CN(C)C)cc(OCCCCC(=O)OCCCCCCCC/C=C\C/C=C\CCCCC)c1 [Example 89, di((9Z,12Z)-octadeca-9,12-dien-1-yl) 5,5′-((5-((dimethylamino)methyl)-1,3-phenylene)bis(oxy))dipentanoate] | 101.5 nm | 0.076 |  |
| CCCCC/C=C\C/C=C\CCCCCCCC(=O)OCCCOc1cc(CN(C)C)cc(OCCCOC(=O)CC(CCCCCCCC)CCCCCCCC)c1 [Ex. 97, (9Z,12Z)-3-(3-((dimethylamino)methyl)-5-(3-((3-octylundecanoyl)oxy)propoxy)phenoxy)propyl octadeca-9,12-dienoate] | 98.01 nm | 0.106 |  |
| CCCCCCCCCCCCC(=O)OCc1cc(COC(=O)CCCCCCCCCCCC)cc(CN(C)C)c1 [Example 34, (5-((dimethylamino)methyl)-1,3-phenylene)bis(methylene)ditridecanoate] |  |  | KD FVII 0.3 mg/kg [4]: 0% |
